The values below come from US20100168097A1, “Non-Nucleoside Reverse Transcriptase Inhibitors” (priority 2005, published 2010).

By IC50 is commonly meant the point on the concentration scale where inhibition reaches its midpoint. One may read the IC95 as the concentration at which the effect reaches the 95% level. A higher IC95 goes with a need for much substance.

Experiment [1] deals with HIV-1 RT enzyme (Human immunodeficiency virus type 1 group M subtype B, UniProt P04585). Put plainly: Assay for inhibition of HIV reverse transcriptase (RNA-dependent DNA polymerase, SPA). The format is biochemical. The conditions noted are these: HIV-1 RT enzyme 1 nM, 1 hour at 37° C. The procedure:
(§1) 100 μL reaction mixtures were initiated with a combination of primer-template substrate (10 nM final concentration) and dNTPs (0.6 μM dNTPs, 0.75 μM [^3H]-dGTP). The heterodimeric nucleic acid substrate was generated by annealing the DNA primer pD500 (described in Shaw-Reid et al., J. Biol. Chem., 278: 2777-2780; obtained from Integrated DNA Technologies) to t500, a 500 nucleotide RNA template created by in vitro transcription (see Shaw-Reid et al., J. Biol. Chem., 278: 2777-2780). After 1 hour incubation at 37° C., reactions were quenched by 10 μL streptavidin scintillation proximity assay beads (10 mg/mL, from Amersham Biosciences) in 0.5 M EDTA, pH 8. Microtiter plates were incubated an additional 10 minutes at 37° C. prior to quantification via Topcount (Packard).

In experiment [2] the test system is acute HIV infection of T-lymphoid cells. As to the kind of experiment: Assay for inhibition of HIV replication (spread assay). Format: cell-based. Conditions: Human immunodeficiency virus 1; inhibition of HIV replication in T-lymphoid cells. The procedure: An assay for the inhibition of acute HIV infection of T-lymphoid cells (alternatively referred to herein as the “spread assay”) was conducted in accordance with Vacca, J. P. et al., Proc. Natl. Acad. Sci. USA 1994, 91: 4096. […] The compounds of Examples 2-4 and 22 were not tested.

Experiment [3] has as its target T1, mutant HIV reverse transcriptase, K103N mutation (Human immunodeficiency virus type 1 group M subtype B, UniProt P04585, K690N).
T1 construct: made in house
As to the kind of experiment: Analogous RT inhibition assay, K103N mutant. The format is biochemical. On the procedure:
as §1
(§2) Analogous assays were conducted substituting mutant HIV strains to determine the […] inhibition of compounds of the present invention against mutant HIV reverse transcriptase. In one strain the reverse transcriptase has the Y181C mutation and in the other strain the reverse transcriptase has the K103N mutation. The mutations were generated with the […] site-directed mutagenesis kit (Stratagene).

The target in experiment [4] is T2, mutant HIV reverse transcriptase, Y181C mutation (Human immunodeficiency virus type 1 group M subtype B, UniProt P04585, Y768C).
T2 construct: made in house
As to the kind of experiment: Analogous RT inhibition assay, Y181C mutant. Format: biochemical. On the procedure: as §1, §2

Setting [5] is: K103N mutant RT, tested up to 20 micromolar, read-out: IC50, K103N mutant assay.
[6] abbreviates: Y181C mutant RT, tested up to 20 micromolar, read-out: IC50, Y181C mutant assay.

Like-named read-outs stand apart in the source and are kept apart here.

For `O=S(=O)(c1ccccc1)c1c(-c2ncc(-c3ccncc3)s2)[nH]c2ccc(Cl)cc12` [Example 2, 5-chloro-3-(phenylsulfonyl)-2-(5-pyridin-4-yl-1,3-thiazol-2-yl)-1H-indole], in experiment [1], the half-inhibitory concentration (IC50) stood at 4000 nM.
In experiment [2], `O=S(=O)(c1ccccc1)c1c(-c2noc(-c3ccccc3F)n2)[nH]c2ccc(Cl)cc12` [Example 7, 5-chloro-2-[5-(2-fluorophenyl)-1,2,4-oxadiazol-3-yl]-3-(phenylsulfonyl)-1H-indole] gave an IC95 below 1000 nM. In addition, the IC50 in experiment [3] (setting [5]) and in experiment [4] (setting [6]) was above 20000 nM throughout.
`COC(=O)c1cc(-c2c[nH]c(-c3[nH]c4ccc(Br)cc4c3S(=O)(=O)N3CCCC3)n2)ccc1O` [Example 31, methyl 5-{2-[5-bromo-3-(pyrrolidin-1-ylsulfonyl)-1H-indol-2-yl]-1H-imidazol-4-yl}-2-hydroxybenzoate]: in experiment [2], the IC95 was below 1000 nM. The 50% inhibitory concentration (IC50) in experiment [3] (setting [5]) is below 1000 nM; in experiment [4], above 20000 nM.
In experiment [2], `O=S(=O)(c1ccccc1)c1c(-c2noc([C@@H]3C[C@H]3c3ccccc3)n2)[nH]c2ccc(Cl)cc12` [Example 8, 5-chloro-2-{5-[(1R,2R)-2-phenylcyclopropyl]-1,2,4-oxadiazol-3-yl}-3-(phenylsulfonyl)-1H-indole] yielded an IC95 of 2500 nM. Besides, the IC50 in experiment [3] (setting [5]) and in experiment [4] (setting [6]) was above 20000 nM each time.
As for `O=S(=O)(c1c(-c2nc(-c3ccc(Cl)cc3)c[nH]2)[nH]c2ccc(Br)cc12)N1CCCC1` [Example 24, 5-bromo-2-[4-(4-chlorophenyl)-1H-imidazol-2-yl]-3-(pyrrolidin-1-ylsulfonyl)-1H-indole], the IC95 in experiment [2] was below 1000 nM. Besides, the results for the half-maximal inhibitory concentration (IC50) in experiment [3] (setting [5]) and in experiment [4] (setting [6]) were below 1000 nM and above 20000 nM, respectively.
As for `O=S(=O)(c1c(-c2nc(-c3ccc(N4CCOCC4)cc3)c[nH]2)[nH]c2ccc(Br)cc12)N1CCCC1` [Example 19, 5-bromo-2-[4-(4-morpholin-4-ylphenyl)-1H-imidazol-2-yl]-3-(pyrrolidin-1-ylsulfonyl)-1H-indole], the concentration for an effect of 95% (IC95) in experiment [2] was below 1000 nM. Further, the IC50 in experiment [3] (setting [5]) was below 1000 nM; in experiment [4], above 20000 nM.
Consider `Cc1cnc(-c2[nH]c3ccc(Br)cc3c2S(=O)(=O)N2CCCC2)[nH]1` [Example 16, 5-Bromo-2-(4-methyl-1H-imidazol-2-yl)-3-(pyrrolidin-1-ylsulfonyl)-1H-indole], for which, in experiment [2], the concentration for an effect of 95% (IC95) was below 1000 nM. In addition, the IC50 in experiment [3] (setting [5]) and in experiment [4] was below 1000 nM throughout.
In turn, `O=S(=O)(c1c(-c2nc(-c3ccc(F)cc3)c[nH]2)[nH]c2ccc(Br)cc12)N1CCCC1` [Example 25, 5-bromo-2-[4-(4-fluorophenyl)-1H-imidazol-2-yl]-3-(pyrrolidin-1-ylsulfonyl)-1H-indole] had a concentration for an effect of 95% (IC95) in experiment [2] below 1000 nM. In addition, the half-inhibitory concentration (IC50) in experiment [3] (setting [5]) is below 1000 nM; in experiment [4] (setting [6]) it was above 20000 nM.
`O=S(=O)(c1ccccc1)c1c(-c2noc(Cc3ccccc3)n2)[nH]c2ccc(Cl)cc12` [Example 14, 2-(5-benzyl-1,2,4-oxadiazol-3-yl)-5-chloro-3-(phenylsulfonyl)-1H-indole] showed an IC95 in experiment [2] below 1000 nM. Moreover, the IC50 in experiment [3] (setting [5]) and in experiment [4] (setting [6]) was above 20000 nM each time.
The molecule `N#Cc1ccc(-c2c[nH]c(-c3[nH]c4ccc(Br)cc4c3S(=O)(=O)N3CCCC3)n2)cc1` [Example 33, 4-{2-[5-bromo-3-(pyrrolidin-1-ylsulfonyl)-1H-indol-2-yl]-1H-imidazol-4-yl}benzonitrile] showed an IC95 in experiment [2] below 1000 nM. For the same molecule, the figures for the IC50 in experiment [3] (setting [5]) and in experiment [4] were below 1000 nM and above 20000 nM, respectively.
In the case of `O=S(=O)(c1ccccc1)c1c(-c2noc(-c3ccncc3)n2)[nH]c2ccc(Cl)cc12` [Example 10, 5-chloro-3-(phenylsulfonyl)-2-(5-pyridin-4-yl-1,2,4-oxadiazol-3-yl)-1H-indole], the IC95 in experiment [2] is below 1000 nM. In addition, the IC50 in experiment [3] (setting [5]) is above 20000 nM; in experiment [4], 1000 to 20000 nM.
In the case of `O=[N+]([O-])c1ccc(-c2c[nH]c(-c3[nH]c4ccc(Br)cc4c3S(=O)(=O)N3CCCC3)n2)cc1` [Example 32, 5-bromo-2-[4-(4-nitrophenyl)-1H-imidazol-2-yl]-3-(pyrrolidin-1-ylsulfonyl)-1H-indole], the IC95 in experiment [2] was below 1000 nM. Further, the IC50 in experiment [3] (setting [5]) is below 1000 nM; in experiment [4], 1000 to 20000 nM.
Molecule `COc1ccc(-c2c[nH]c(-c3[nH]c4ccc(Br)cc4c3S(=O)(=O)N3CCCC3)n2)cc1` [Example 28, 5-bromo-2-[4-(4-methoxyphenyl)-1H-imidazol-2-yl]-3-(pyrrolidin-1-ylsulfonyl)-1H-indole] came in with a 95% effect concentration (IC95) in experiment [2] below 1000 nM. Also, the IC50 in experiment [3] (setting [5]) is below 1000 nM; in experiment [4] (setting [6]), 1000 to 20000 nM.
The molecule `O=S(=O)(c1c(-c2nc(-c3ccc4c(c3)OCO4)c[nH]2)[nH]c2ccc(Br)cc12)N1CCCC1` [Example 30, 2-[4-(1,3-benzodioxol-5-yl)-1H-imidazol-2-yl]-5-bromo-3-(pyrrolidin-1-ylsulfonyl)-1H-indole] gave a 95% effect concentration (IC95) in experiment [2] below 1000 nM. Besides, the results for the IC50 in experiment [3] (setting [5]) and in experiment [4] (setting [6]) were below 1000 nM and 1000 to 20000 nM, respectively.
In experiment [2], `O=S(=O)(c1ccccc1)c1c(-c2noc(-c3ccc(F)cc3F)n2)[nH]c2ccc(Cl)cc12` [Example 11, 5-chloro-2-[5-(2,4-difluorophenyl)-1,2,4-oxadiazol-3-yl]-3-(phenylsulfonyl)-1H-indole] had an IC95 below 1000 nM. Further, the IC50 in experiment [3] (setting [5]) and in experiment [4] (setting [6]) was above 20000 nM in each case.
Consider `O=S(=O)(c1ccccc1)c1c(-c2noc(COc3ccccc3)n2)[nH]c2ccc(Cl)cc12` [Example 9, 5-chloro-2-[5-(phenoxymethyl)-1,2,4-oxadiazol-3-yl]-3-(phenylsulfonyl)-1H-indole], for which, in experiment [2], the IC95 is below 1000 nM. For the same molecule, the IC50 in experiment [3] (setting [5]) and in experiment [4] (setting [6]) was above 20000 nM each time.
`Cc1nc(-c2[nH]c3ccc(Cl)cc3c2S(=O)(=O)c2ccccc2)no1` [Example 12, 5-chloro-2-(5-methyl-1,2,4-oxadiazol-3-yl)-3-(phenylsulfonyl)-1H-indole] gave a 95% effect concentration (IC95) in experiment [2] below 1000 nM. Moreover, the IC50 in experiment [3] (setting [5]) and in experiment [4] (setting [6]) was above 20000 nM each time.
`CCc1nc(-c2[nH]c3ccc(Cl)cc3c2S(=O)(=O)c2ccccc2)no1` [Example 15, 5-chloro-2-(5-ethyl-1,2,4-oxadiazol-3-yl)-3-(phenylsulfonyl)-1H-indole] showed an IC95 in experiment [2] below 1000 nM. For the same molecule, the IC50 in experiment [3] (setting [5]) and in experiment [4] (setting [6]) was above 20000 nM in each case.
In experiment [2], `O=S(=O)(c1ccccc1)c1c(-c2noc(C3CCC3)n2)[nH]c2ccc(Cl)cc12` [Example 13, 5-chloro-2-(5-cyclobutyl-1,2,4-oxadiazol-3-yl)-3-(phenylsulfonyl)-1H-indole] had a 95% effect concentration (IC95) below 1000 nM. The IC50 in experiment [3] (setting [5]) and in experiment [4] (setting [6]) was above 20000 nM throughout.
As to `Cc1cnc(-c2[nH]c3ccc(Cl)cc3c2S(=O)(=O)CC2CCC2)[nH]1` [Example 34, 5-Chloro-3-[(cyclobutylmethyl)sulfonyl]-2-(5-methyl-1H-imidazol-2-yl)-1H-indole], the IC95 in experiment [2] is below 1000 nM. Besides, the half-maximal inhibitory concentration (IC50) in experiment [3] was above 3000 nM; in experiment [4] (setting [6]), below 1000 nM.
